The values that follow come from ChEMBL document CHEMBL5096176, “AAA ATPases as therapeutic targets: Structure, functions, and small-molecule inhibitors” (Eur J Med Chem, 2021).

Series [1] has as its target T1, Transitional endoplasmic reticulum ATPase (Homo sapiens, UniProt P55072). The experiment in a line: Inhibition of p97 (unknown origin) incubated for 15 mins in presence of ATP by ADP Glo assay. On the technique in general: ADP-Glo first removes unused ATP, then detects ADP through luciferase.
Series [2] deals with Huh-7. The series is described as follows: Anticancer activity against human Huh-7 cells assessed as inhibition of cell proliferation incubated for 4 days by MTS assay. Format: functional, cell-based. The conditions noted are these: Huh-7, 96 h. For orientation: Formazan colour is commonly taken as a measure of viable cells.
Series [3] deals with Hep 3B2. The experiment in a line: Anticancer activity against human Hep3B cells assessed as inhibition of cell proliferation incubated for 4 days by MTS assay. Format: functional, cell-based. The note with it: 96 h.
Series [4] has as its target T2, Spastin (Drosophila melanogaster, UniProt Q8I0P1).
T2 sequence (Q8I0P1 whole entry): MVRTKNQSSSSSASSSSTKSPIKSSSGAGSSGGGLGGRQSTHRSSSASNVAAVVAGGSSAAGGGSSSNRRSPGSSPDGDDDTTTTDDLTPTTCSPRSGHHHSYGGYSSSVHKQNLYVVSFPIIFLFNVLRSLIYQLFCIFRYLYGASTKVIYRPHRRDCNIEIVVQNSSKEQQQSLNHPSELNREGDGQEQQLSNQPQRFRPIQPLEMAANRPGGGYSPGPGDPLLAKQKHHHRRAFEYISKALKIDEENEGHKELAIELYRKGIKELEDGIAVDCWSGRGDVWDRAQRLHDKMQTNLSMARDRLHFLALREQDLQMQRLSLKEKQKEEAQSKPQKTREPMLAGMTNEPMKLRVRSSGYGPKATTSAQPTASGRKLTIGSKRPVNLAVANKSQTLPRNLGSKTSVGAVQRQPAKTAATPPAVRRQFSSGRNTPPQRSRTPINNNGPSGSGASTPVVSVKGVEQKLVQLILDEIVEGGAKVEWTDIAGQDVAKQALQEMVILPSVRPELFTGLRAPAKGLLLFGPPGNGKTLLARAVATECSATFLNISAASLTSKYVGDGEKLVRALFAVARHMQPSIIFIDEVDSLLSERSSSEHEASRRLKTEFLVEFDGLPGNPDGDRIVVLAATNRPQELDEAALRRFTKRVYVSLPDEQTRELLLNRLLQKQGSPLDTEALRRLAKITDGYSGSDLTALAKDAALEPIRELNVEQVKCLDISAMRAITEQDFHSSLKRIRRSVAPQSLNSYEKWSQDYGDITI
The series is described as follows: Inhibition of wild-type Drosophila melanogaster Spastin (209 to 758 residues) in presence of ATP by NADH-coupled fluorescence assay.

Series [5] can be described thus: Inhibition of Drosophila melanogaster Spastin N527C mutant (209 to 758 residues) in presence of ATP by NADH-coupled fluorescence assay.
The nature of series [6]: Selectivity index, ratio of CC50 for MDCK cells to EC50 for Oseltamivir-resisitant Influenza A virus (A/North Carolina/39/2009 (H1N1)) infected in MDCK cells. Format: toxicity, cell-based. The conditions noted are these: dog, read-out: Ratio CC50/EC50.
Series [7] relates to Cytomegalovirus. The series is described as follows: Antiviral activity against human Cytomegalovirus infected in human fibroblast cells assessed as viral growth inhibition preincubated for 24 hrs with compound followed by viral infection by plaque assay. Type of series: functional, organism-based. The note with it: Human betaherpesvirus 5, Fibroblast.
Series [8] concerns Influenza A virus. The series is described as follows: Antiviral activity against Influenza A virus (A/Texas/04/2009 (H1N1)) infected in MDCK cells over expressing ST6Gal I assessed as inhibition of viral replication by plaque assay. Format: functional, organism-based.
Series [9] relates to Influenza A virus. The experiment in a line: Antiviral activity against Influenza A virus (A/Denmark/528/2009 (H1N1)) infected in MDCK cells over expressing ST6Gal I assessed as inhibition of viral replication by plaque assay. Type of series: functional, organism-based.
A short description of series [10]: Selectivity index, ratio of CC50 for MDCK cells to EC50 for Influenza A virus (A/Texas/04/2009 (H1N1)) infected in MDCK cells. Format: toxicity, cell-based. The note with it: dog, read-out: Ratio CC50/EC50.
Series [11] can be described thus: Selectivity index, ratio of CC50 for MDCK cells to EC50 for Influenza A virus (A/Denmark/528/2009 (H1N1)) infected in MDCK cells. Type of series: toxicity, cell-based. The conditions noted are these: dog, read-out: Ratio CC50/EC50.
Series [12] has as its target T1, Transitional endoplasmic reticulum ATPase. The series is described as follows: Inhibition of p97 (unknown origin) in presence of ATP by Biomol Green Reagent based assay.
The target in series [13] is T3, Spastin (Homo sapiens, UniProt Q9UBP0).
T3 sequence (Q9UBP0 whole entry): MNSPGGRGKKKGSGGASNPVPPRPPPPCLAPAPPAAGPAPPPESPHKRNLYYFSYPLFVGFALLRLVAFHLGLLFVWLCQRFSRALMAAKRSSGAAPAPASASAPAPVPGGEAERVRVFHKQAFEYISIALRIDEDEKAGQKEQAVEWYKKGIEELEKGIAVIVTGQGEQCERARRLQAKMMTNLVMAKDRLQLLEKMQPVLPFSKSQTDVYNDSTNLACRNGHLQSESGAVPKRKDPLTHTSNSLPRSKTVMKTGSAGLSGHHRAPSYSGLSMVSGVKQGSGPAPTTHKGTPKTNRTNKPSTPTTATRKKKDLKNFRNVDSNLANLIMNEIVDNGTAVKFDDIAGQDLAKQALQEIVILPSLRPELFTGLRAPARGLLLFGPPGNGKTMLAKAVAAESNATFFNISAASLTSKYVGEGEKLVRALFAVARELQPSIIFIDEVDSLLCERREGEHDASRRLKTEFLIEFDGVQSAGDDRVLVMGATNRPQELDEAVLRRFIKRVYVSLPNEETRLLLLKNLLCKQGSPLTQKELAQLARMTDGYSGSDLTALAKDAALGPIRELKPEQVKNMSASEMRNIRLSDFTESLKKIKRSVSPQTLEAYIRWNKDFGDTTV
The series is described as follows: Inhibition of human Spastin in presence of ATP.

In series [14] the test system is Schizosaccharomyces pombe. The experiment in a line: Antifungal activity against Schizosaccharomyces pombe assessed as fungal growth inhibition incubated for 18 hrs by absorbance based assay. Type of series: functional.
Series [15] concerns HeLa. The series is described as follows: Anticancer activity against human HeLa cells assessed as cell growth inhibition. Format: functional, cell-based.

pEC50, pIC50: −log10 of the molar value.

T1 sequence (P55072 whole entry): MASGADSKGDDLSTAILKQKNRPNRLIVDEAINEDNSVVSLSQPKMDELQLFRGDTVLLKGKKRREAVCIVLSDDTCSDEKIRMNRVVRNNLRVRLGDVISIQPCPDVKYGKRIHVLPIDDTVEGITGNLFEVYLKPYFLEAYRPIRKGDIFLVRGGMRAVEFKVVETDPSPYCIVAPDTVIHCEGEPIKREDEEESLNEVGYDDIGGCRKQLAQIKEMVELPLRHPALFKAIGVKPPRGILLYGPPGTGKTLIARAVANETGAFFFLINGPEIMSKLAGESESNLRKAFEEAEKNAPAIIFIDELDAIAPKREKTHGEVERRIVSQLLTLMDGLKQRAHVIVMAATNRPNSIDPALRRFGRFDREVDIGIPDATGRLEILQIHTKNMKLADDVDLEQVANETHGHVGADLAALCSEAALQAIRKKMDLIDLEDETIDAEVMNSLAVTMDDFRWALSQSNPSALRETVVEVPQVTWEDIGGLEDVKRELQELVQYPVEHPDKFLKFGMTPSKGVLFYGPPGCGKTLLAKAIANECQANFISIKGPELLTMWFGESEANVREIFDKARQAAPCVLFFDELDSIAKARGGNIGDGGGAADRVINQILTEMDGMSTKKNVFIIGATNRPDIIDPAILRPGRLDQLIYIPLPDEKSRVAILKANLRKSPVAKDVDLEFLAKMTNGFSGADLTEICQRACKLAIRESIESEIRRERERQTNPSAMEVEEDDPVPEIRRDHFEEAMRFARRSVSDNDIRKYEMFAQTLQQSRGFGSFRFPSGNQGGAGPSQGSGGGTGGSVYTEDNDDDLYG

By pIC50 is commonly meant −log10 of the IC50, conventionally taken in molar units. For the compound `Nc1nc(O)c2ncn(COC(CO)CO)c2n1` [GANCICLOVIR], in [1], the pIC50 was 5.89. For `CC(=O)c1c(O)c(C)c(O)c(Cc2c(O)c3c(c(C(=O)/C=C/c4ccccc4)c2O)OC(C)(C)C=C3)c1O` [ROTTLERIN], the pIC50 in [2] was 6.24; in series [3] it was 6.60.

On to `C[C@@H]1CNCCN1c1nc(Nc2cc(C(C)(C)C)[nH]n2)c2cccc(F)c2n1`, for which the pIC50 was 5.32 in [4] and 6.64 in series [5]. For orientation: pEC50 means the negative decadic logarithm of the EC50, by convention in mol/L. In the case of `Cc1cc(OCc2nnc(SC3CCCC3)n2-c2cccnc2)ccc1-c1ccc(S(C)(=O)=O)cc1`, the selectivity ratio in series [6], in series [10] and in series [11] was 50 in each case. The pIC50 in series [7] was 6.89. Moreover, the pEC50 in series [8] and in [9] was 7.52 in each case.

As for `Cc1cc(OCc2cnc(SC3CCCC3)n2-c2cccnc2)ccc1C#CCCNC(C)C`, the pIC50 in [12] is 8.15. With `O=c1[nH]c2ccccc2n1C1CCN(Cc2ccc(-c3nc4cc5[nH]cnc5cc4nc3-c3ccccc3)cc2)CC1`, the pIC50 in series [2] was 5.40; in [3], 5.46. With `CC(C)[C@@H]1CN(c2nc(Nc3cc(C(C)(C)C)[nH]n3)c3cc[nH]c3n2)CCN1`, in [13], the pIC50 was 7.00.

As a reminder, the GI50 is the concentration giving 50% growth inhibition. For the compound `C=C(C)CSc1nnc2c(n1)[nH]c1cc(Br)ccc12`, in [14], the GI50 amounted to 14 nM. `O=C(CCl)Nc1cccc(NC2=NS(=O)(=O)c3ccccc32)c1`: in series [15], the pIC50 was 5.52. As for `C[C@@H]1CNCCN1c1nc(Nc2cc(C(C)(C)C)[nH]n2)c2ccccc2n1`, in [13], the pIC50 was 5.36.

Regarding `C=C(C)CSc1nnc2c(n1)[nH]c1ccccc12`, in [14], the GI50 stood at 136 nM.
